From patent US20140186329A1, “POLYPHENOL ANALOGS TO TREAT ISCHEMIA” (priority 2011, published 2014)
Read-outs that look alike come from different tables or passages of the source.

Columns and labels:
HT22 cells [1] = assay: Maintenance of total GSH in the presence of glutamate; assay type: cell-based, mouse; conditions: derivative 1-10 μM, 5 mM glutamate, 24 hr
Method: Total intracellular glutathione was determined by a chemical assay as described (Maher, P. et al., Free Radical Research. (2006) 40 (10), 1105-1111).
(§1) Three secondary screens allowed assessment of three key activities of Fisetin that are highly relevant to stroke, as well as other neurological disorders: maintenance of glutathione (GSH), the major endogenous cellular antioxidant, inhibition of LPS-induced microglial activation, an indicator of anti-inflammatory activity and PC 12 cell differentiation, a measure of neurotrophic activity. All of these activities are relevant to the nerve cell loss seen in stroke (Gelderblom, et al., Stroke. 2009, 40 (5), 1849-1857; Pandya, et al., Cent. Nerv. Syst. Agents. Med. Chem. (2011) April 27; Lewerenz, et al., J. Neurochem. (2010) 113 (2), 502-504). […] To assess GSH maintenance, total intracellular GSH levels after a 24 hr treatment with the compound both in the absence and presence of glutamate, an inducer of GSH loss and oxidative stress (Tan, et al., Curr. Top. Med. Chem. (2001) 1, 497-506; Maher, et al., Free Radical Research. (2006) 40 (10), 1105-1111) was measured. Inhibition of LPS-induced microglial activation was determined by treating N9 mouse microglial cells with LPS alone and in the presence of the compounds and assaying NO release into the medium 24 hr later (Zheng, et al., Int. Immunopharmacol. (2008) 8, (3), 484-494). PC12 cell differentiation was determined by treating PC12 cells with the compounds and looking at neurite outgrowth after 24 hr. In all cases, Fisetin was used as a positive control (Sagara, et al., J. Neurochem. (2004) 90, 1144-1155).
(§2) Cell viability was determined after 24 hr by the MTT assay. The ability to maintain GSH (GSH) was determined by treating HT22 cells with different doses of each derivative (1-10 μM) in the presence of 5 mM glutamate. After 24 hr cell extracts were prepared and analyzed for total GSH. Fisetin (10 μM) was used as a positive control. The ability to induce PC12 cell differentiation (PC 12 diff' n) was determined by treating PC12 cells in N2 medium with different doses of each derivative (1-10 μM) for 24 hr. Differentiation was assessed by visual inspection with Fisetin (10 μM) as a positive control. Anti-inflammatory activity (microglia) was assessed in N9 microglial cells treated with bacterial lipopolysaccharide alone or in the presence different doses of each derivative (1-10 μM) for 24 hr. Fisetin was used as a positive control. TEAC values, a measure of direct antioxidant activity, were determined using the ABTS decolorization assay.

[2] = TEAC, ABTS decolorization assay; conditions: relative to Trolox
Method: TEAC values for the flavonoids were determined as described (Maher, P. et al., Free Radical Research. (2006), supra). Briefly, 250 μl of 2,2′-azinobis(3-ethylbenzothiazoline 6-sulfonate) (ABTS) treated overnight with potassium persulfate and diluted to an OD of ˜0.7 at 734 nm was added to 2.5 μl of a derivative solution in ethanol. The change in absorbance due to the reduction of the ABTS radical cation was measured at 734 nm for 4 min. To calculate the TEAC, the gradient of the plot of the percentage inhibition of absorbance vs. concentration for the derivative in question was divided by the gradient of the plot for Trolox.
as §2

HT22 cells [3] = assay: In vitro ischemia assay (HT22 cell IAA assay, MTT); assay type: cell-based, mouse; conditions: for EC50 / Emax: Mus musculus; for EC50: HT-22, HT22 cells; for Emax: HT-22, HT22 Cell IAA assay, read-out: Max Protection; for EC50 in vitro ischemia (μM): HT22 cells
Method: Cell viability was determined by a modified version of 3-(4,5-dimethylthiazol-2-yl)-2,5-diphenyl tetrazolium bromide (MTT) assay based on the standard procedure (Maher, et al., Brain Research. (2007), supra). Cells were seeded onto 96-well microtiter plates at a density of 5×10^3 cells per well. For the in vitro ischemia assay, the next day, the medium was replaced with DMEM supplemented with 7.5% DFCS and the cells were treated with 20 μM iodoacetic acid (IAA) alone or in the presence of the different derivatives. After 2 hr the medium in each well was aspirated and replaced with fresh medium without IAA but containing the derivatives. 20 hr later, the medium in each well was aspirated and replaced with fresh medium containing 2.5 μg/ml MTT. After 4 hr of incubation at 37° C., the cells were solubilized with 100 μl of a solution containing 50% dimethylformamide and 20% SDS (pH 4.7). The absorbance at 570 nm was measured on the following day with a microplate reader (Molecular Devices). Results were confirmed by visual inspection of the wells. Controls included compound alone to test for toxicity and compound with no cells to test for interference with the assay chemistry.
For a primary screen, an in vitro ischemia model in combination with the HT22 nerve cell line (Maher, et al., Brain Research. (2007) 1173, 117-125) was chosen. […] To induce ischemia in the HT22 cells we used iodoacetic acid (IAA), a well-known, irreversible inhibitor of the glycolytic enzyme glyceraldehyde 3-phosphate dehydrogenase (G3PDH) (Winkler, et al., Exp. Eye Res. (2003) 76, 715-723). IAA has been used in a number of other studies to induce ischemia in nerve cells (Reshef, et al., Neurosci. Lett. (1997) 238, 37-40; Sperling, et al., Neursci. Lett. (2003) 351, 137-140; Rego, et al., Neurochem. Res. (1999) 24, 351-358; Sigalov, et al., J. Mol. Neurosci. (2000) 15, 147-154; and Reiner, et al., Neurosci. Lett. (1990) 119, 175-178), including several recent screens for neuroprotective molecules (Biraboneye, et al., J. Med. Chem. (2009) 52 (14), 4358-4369; Biraboneye, et al., Chem. Med. Chem. (2010) 5 (1), 79-85). The changes following IAA treatment of neural cells are very similar to those seen in animal models of ischemic stroke (Lipton, et al., Physiol. Rev. (1999) 79, 1431-1568) and include alterations in membrane potential (Reiner, et al., Neurosci. Lett. (1990) 119, 175-178), breakdown of phospholipids (Taylor, et al., J. Pharmacol. Exp. Ther. (1996) 276, 1224-1231), loss of ATP (Winkler, et al., Exp. Eye Res. (2003) 76, 715-723; Sperling, et al., Neursci. Lett. (2003) 351, 137-140) and an increase in reactive oxygen species (ROS) (Taylor, et al., J. Pharmacol. Exp. Ther. (1996), supra; and Sperling, et al., Neursci. Lett. (2003) 351, 137-140).
as §2
For rapid screening of chemical libraries, a mouse HT22 hippocampal cell death assay induced by addition of the compound iodoacetic acid (IAA) was used. IAA is a well-known, irreversible inhibitor of the glycolytic enzyme glyceraldehyde 3-phosphate dehydrogenase (G3PDH). […]

PC12 cells = assay: PC12 cell differentiation (neurite outgrowth); assay type: cell-based; conditions: N2 medium, derivative 1-10 μM, 24 hr, visual inspection
Method: PC 12 cells in N2 medium were treated with the derivatives (1-10 μM) or Fisetin (10 μM) as a positive control for 24 hr at which time the cells were scored for the presence of neurites. PC12 cells produce neurites much more rapidly when treated in N2 medium than when treated in regular growth medium. For each treatment, 100 cells in each of three separate fields were counted. Cells were scored positive if one or more neurites>1 cell body diameter in length were observed.
as §1, §2

[4] = 20 μM IAA for 2 hr, viability after 24 hr by MTT, read-out: EC50 in vitro ischemia
[5] = 20 μM IAA for 2 hr, viability after 24 hr by MTT
[6] = 20 μM IAA, read-out: HT22 Cell IAA assay EC50

Row | Compound | GSH (ability to maintain GSH) (HT22 cells [1]) | TEAC [2] | EC50 (HT22 cells [3]; [4]) | Emax (HT22 cells [3]) | PC12 diff'n (ability to induce PC12 cell differentiation) (PC12 cells) | EC50 in vitro ischemia (μM) (HT22 cells [3]; [5]) | EC50 (HT22 cells [3]; [6]) | fold improvement of neuroprotective activity/potency relative to Fisetin (HT22 cells [3]; in vitro ischemia, HT22/IAA)
1 | COc1ccc(-c2oc3cc(C)c(C)cc3c(=O)c2O)cc1O [CMS-092, 3-hydroxy-2-(3-hydroxy-4-methoxyphenyl)-6,7-dimethyl-4H-chromen-4-one] | no | 1.74 | 20 nM | 90% | no |  |  | 
2 | COc1cc(-c2ccc(O)cc2)nc2ccccc12 [CMS-022, 4-methoxy-2-(4-hydroxyphenyl)quinoline] | no | 0.81 |  |  | no | no |  | 
3 | Cc1cc2oc(-c3ccc(O)cc3O)cc(=O)c2cc1C [CMS-094, 2-(2,4-dihydroxyphenyl)-6,7-dimethyl-4H-chromen-4-one] | no | 0.15 | > 500 nM |  | no |  |  | 
4 | COc1cc(/C=C/C(=O)c2ccc3ccccc3c2O)ccc1OCc1ccccc1 [CMS-063, (E)-3-(4-(benzyloxy)-3-methoxyphenyl)-1-(1-hydroxynaphthalen-2-yl)prop-2-en-1-one] | no | 0.15 | 500 nM |  | no |  |  | 
5 | COc1ccc(-c2cc(OC)c3ccccc3n2)cc1O [CMS-001, 4-methoxy-2-(3-hydroxy, 4-methoxyphenyl) quinoline] | no | 0.24 |  |  | no | no |  | 
6 | CC(C)Oc1cc(-c2ccc(N(C)C)cc2)nc2ccccc12 [CMS-112, 4-isopropoxy-2-(4-dimethylaminophenyl)quinoline] | no | 0.15 | 50 nM |  | no |  |  | 
7 | Cc1cc2oc(-c3ccc(N(C)C)cc3)cc(=O)c2cc1C [CMS-119, 2-(4-(dimethylamino)phenyl)-6,7-dimethyl-4H-chromen-4-one] | no | 0 | > 500 nM |  | no |  |  | 
8 | O=c1cc(-c2ccc(O)c(O)c2)oc2c1ccc1ccccc12 [CMS-02P, reference compound] | no | 0.18 | 80 nM | 86% | yes |  | ≤ 100 nM | ~40 fold
9 | CCOc1ccc(-c2oc3c(ccc4ccccc43)c(=O)c2O)cc1OCC [CMS-036, 2-(3,4-diethoxyphenyl)-3-hydroxy-4H-benzo[h]chromen-4-one] | no | 0.15 | 300 nM |  | no |  |  | 
10 | CCOc1ccc(-c2cc(=O)c3cc(C)c(C)cc3o2)cc1OCC [CMS-018, 2-(3,4-diethoxyphenyl)-6,7-dimethyl-4H-chromen-4-one] | no | 0.15 |  |  | no | no |  | 
11 | COc1cc(-c2ccccc2)nc2ccccc12 [CMS-021, 4-methoxy-2-phenylquinoline] | no | 0.12 | 750 nM |  | no |  |  | 
12 | COc1cc(-c2cc(OC)c3ccccc3n2)ccc1O [CMS-017, 4-methoxy-2-(4-hydroxy, 3-methoxyphenyl) quinoline] | no | 0.15 | 500 nM |  | no |  |  | 
13 | COc1cc(-c2oc3c(ccc4ccccc43)c(=O)c2O)ccc1OCc1ccccc1 [CMS-065, 2-(4-(benzyloxy)-3-methoxyphenyl)-3-hydroxy-4H-benzo[h]chromen-4-one] | no | 0 | 80 nM |  | yes |  | 81 nM | 
